Patent EP4692061A1, “LOW-MOLECULAR-WEIGHT COMPOUND HAVING CEREBLON-BINDING ACTIVITY, AND USE THEREOF” (Aevis Bio, Inc., priority 2023, dated 2024)

molecular target: cereblon (CRBN) (Homo sapiens, UniProt Q96SW2); test: In vitro CRBN binding assay (AlphaScreen, competitive inhibition of the PROTAC assay); details: not given

Row | Structure (SMILES) | IC50 [nM]
1 | Cc1ccc(NC(=O)Nc2cccc(S(=O)(=O)Nc3cccc(C4CCC(=O)NC4=O)c3)c2)cc1Cl (stereo not drawn) [AEV40181] | 320
2 | O=C1CCC(c2ccc3c(c2)CCNC3=O)C(=O)N1 (stereo not drawn) [AEV40041] | 760

same assay, conditions: Table 1; AlphaScreen, PROTAC Optimization Kit for BET Bromodomain-Cereblon Binding; read-out: Alpha IC50

Row | Structure (SMILES) | IC50 [nM]
3 | O=C1CCC(c2ccc3c(c2)OCCN(c2cccc(NC(=O)C4(C(=O)Nc5ccc(F)cc5)CC4)c2)C3=O)C(=O)N1 (stereo not drawn) [AEV40215] | 2160
4 | O=C1CCC(c2cccc(Nc3cccc(CCC(=O)Nc4cc(-c5ccccc5)[nH]n4)c3)c2)C(=O)N1 (stereo not drawn) [AEV40209] | 910
5 | CC1(C(=O)Nc2cccc(N3CCOc4cc(C5CCC(=O)NC5=O)ccc4C3=O)c2)CC1 (stereo not drawn) [AEV40212] | 2300
6 | O=C1CCC(c2ccc3c(c2)CN(S(=O)(=O)c2ccc(Cl)cc2)C3=O)C(=O)N1 (stereo not drawn) [AEV40077] | 55300
7 | COC(=O)C1CC2(CC(NC(=O)CCc3cccc(Nc4cccc(C5CCC(=O)NC5=O)c4)c3)C2)C1 (stereo not drawn) [AEV40210] | 1220
8 | O=C1CCC(c2cccc(Nc3cccc(CCC(=O)N4CCS(=O)(=O)CC4)c3)c2)C(=O)N1 (stereo not drawn) [AEV40205] | 840
9 | Nc1ccccc1S(=O)(=O)Nc1cccc(C2CCC(=O)NC2=O)c1 (stereo not drawn) [AEV40074] | 270
10 | O=C1CCC(c2cccc(NC(=O)Nc3ccc(C(F)(F)F)cc3)c2)C(=O)N1 (stereo not drawn) [AEV40133] | 1260
11 | O=C1CCC(c2cccc(NS(=O)(=O)c3cccc(NC(=O)c4ccccc4Br)c3)c2)C(=O)N1 (stereo not drawn) [AEV40155] | 950
12 | CCOC(=O)/C=C/c1cc(C)ccc1C1CCC(=O)NC1=O (stereo not drawn) [AEV40160] | 2920
13 | O=C1CCC(c2cccc(NS(=O)(=O)c3cccc(NC(=O)c4c(F)cccc4F)c3)c2)C(=O)N1 (stereo not drawn) [AEV40156] | 1250
14 | Nc1nn(C(=O)CCc2cccc(Nc3cccc(C4CCC(=O)NC4=O)c3)c2)c2ccccc12 (stereo not drawn) [AEV40202] | 790
15 | O=C1CCC(c2cccc(NC(=O)c3cccc4[nH]ccc34)c2)C(=O)N1 (stereo not drawn) [AEV40191] | 480
16 | O=C1CCC(c2cccc(NS(=O)(=O)c3ccc(Cl)cc3)c2)C(=O)N1 (stereo not drawn) [AEV40037] | 860
17 | COc1cc(Cl)ccc1C(=O)Nc1cccc(C2CCC(=O)NC2=O)c1 (stereo not drawn) [AEV40148] | 1120
18 | Nc1cccc(N2CCOc3cc(C4CCC(=O)NC4=O)ccc3C2=O)c1 (stereo not drawn) [AEV40206] | 3690
19 | Cc1ccc(C(=O)Nc2cccc(C3CCC(=O)NC3=O)c2)c(C)c1 (stereo not drawn) [AEV40165] | 930
20 | O=C1CCC(c2cccc(NC(=O)c3ccccc3F)c2)C(=O)N1 (stereo not drawn) [AEV40145] | 1030
21 | COC(=O)c1cccc(S(=O)(=O)Nc2cccc(C3CCC(=O)NC3=O)c2)c1 (stereo not drawn) [AEV40226] | 2220
22 | CC(=O)Nc1ccc(F)c(C2CCC(=O)NC2=O)c1 (stereo not drawn) [AEV40034] | 6260
23 | Nc1cc(-c2ccccc2)n(C(=O)CCc2cccc(Nc3cccc(C4CCC(=O)NC4=O)c3)c2)n1 (stereo not drawn) [AEV40201] | 1220

Row | Structure (SMILES) | IC50 [nM]
24 | O=C1CCC(c2cccc(NC(=O)Nc3ccc(Cl)cc3)c2)C(=O)N1 (stereo not drawn) [AEV40131] | 190
25 | O=C1CCC(c2cccc(NS(=O)(=O)c3ccc(C(F)(F)F)cc3)c2)C(=O)N1 (stereo not drawn) [AEV40100] | 1390
26 | O=C1CCC(c2cccc(NCc3ccc(C(F)(F)F)cc3)c2)C(=O)N1 (stereo not drawn) [AEV40104] | 1720
27 | O=C1CCC(c2ccc3c(c2)OCCN(c2ccccc2)C3=O)C(=O)N1 (stereo not drawn) [AEV40085] | 6580
28 | O=C1CCC(c2cccc(NS(=O)(=O)c3cccc(NCc4cc5ccccc5[nH]4)c3)c2)C(=O)N1 (stereo not drawn) [AEV40163] | 1430
29 | CC1(C(=O)Nc2cccc(S(=O)(=O)Nc3cccc(C4CCC(=O)NC4=O)c3)c2)CC1 (stereo not drawn) [AEV40227] | 980
30 | O=C1CCC(c2cccc(NS(=O)(=O)c3cccc(Cl)c3Cl)c2)C(=O)N1 (stereo not drawn) [AEV40058] | 680
31 | NCc1cccc(C2CCC(=O)NC2=O)c1 (stereo not drawn) [AEV40132] | > 10000
32 | CCCOc1ccc(C(=O)Nc2cccc(S(=O)(=O)Nc3cccc(C4CCC(=O)NC4=O)c3)c2)cc1 (stereo not drawn) [AEV40193] | 860
33 | COc1ccc(CN2CCOc3ccc(C4CCC(=O)NC4=O)cc3C2=O)cc1 (stereo not drawn) [AEV40036] | 1130
34 | Cc1cccc(CNc2cccc(C3CCC(=O)NC3=O)c2)c1 (stereo not drawn) [AEV40106] | 1140
35 | O=C1CCC(c2cccc(NCc3cccc4ccccc34)c2)C(=O)N1 (stereo not drawn) [AEV40120] | 1410
36 | O=C1CCC(c2ccc3c(c2)CN(CCc2ccccc2)C3=O)C(=O)N1 (stereo not drawn) [AEV40049] | 2060
37 | O=C1CCC(c2cccc(NS(=O)(=O)c3cccc(NC(=O)c4c(F)cccc4C(F)(F)F)c3)c2)C(=O)N1 (stereo not drawn) [AEV40149] | 1500
38 | O=C1CCC(c2cccc(NS(=O)(=O)c3cccc(NC(=O)c4ccccc4)c3)c2)C(=O)N1 (stereo not drawn) [AEV40143] | 610
39 | COc1ccccc1C(=O)Nc1cccc(S(=O)(=O)Nc2cccc(C3CCC(=O)NC3=O)c2)c1 (stereo not drawn) [AEV40151] | 340
40 | O=C1CCC(c2cccc(O)c2)C(=O)N1 (stereo not drawn) [AEV40089] | 1140
41 | CC1CCC(C(=O)Nc2cccc(S(=O)(=O)Nc3cccc(C4CCC(=O)NC4=O)c3)c2)CC1 (stereo not drawn) [AEV40224] | 2130
42 | O=C1CCC(c2cccc(NS(=O)(=O)c3cccc(NCc4c[nH]c5ccc(Cl)cc45)c3)c2)C(=O)N1 (stereo not drawn) [AEV40173] | 400
43 | O=C1CCC(c2cccc(NC(=O)c3ccc(F)c(F)c3)c2)C(=O)N1 (stereo not drawn) [AEV40166] | 2520
44 | CC(C)C(=O)Nc1ccc(F)c(C2CCC(=O)NC2=O)c1 (stereo not drawn) [AEV40035] | 3110

Row | Structure (SMILES) | IC50 [nM]
45 | Cc1ccc(NC(=O)NCc2cccc(Nc3cccc(C4CCC(=O)NC4=O)c3)c2)cc1Cl (stereo not drawn) [AEV40192] | 3220
46 | O=C1CCC(c2cccc(NC(=O)c3ccc(Cl)cc3Cl)c2)C(=O)N1 (stereo not drawn) [AEV40076] | 1350
47 | Cc1ccc(C(=O)Nc2cccc(C3CCC(=O)NC3=O)c2)cc1 (stereo not drawn) [AEV40141] | 2080
48 | O=C1CCC(c2cccc(NS(=O)(=O)c3cccc(NCc4ccc5ocnc5c4)c3)c2)C(=O)N1 (stereo not drawn) [AEV40172] | 210
49 | O=C1CCC(c2cccc(NC(=O)c3cc(Cl)ccc3Cl)c2)C(=O)N1 (stereo not drawn) [AEV40178] | 920
50 | O=C1CCC(c2ccc3c(c2)OCCNC3=O)C(=O)N1 (stereo not drawn) [AEV40079] | 2440
51 | O=C1CCC(c2cccc(NC(=O)c3ccc4ccccc4n3)c2)C(=O)N1 (stereo not drawn) [AEV40187] | 830
52 | O=C1CCC(c2cccc(NC(=O)c3sccc3Cl)c2)C(=O)N1 (stereo not drawn) [AEV40182] | 880
53 | O=C1CCC(c2cccc(NS(=O)(=O)c3cccc(NC(=O)c4ccccc4C(F)(F)F)c3)c2)C(=O)N1 (stereo not drawn) [AEV40152] | 720
54 | O=C1CCC(c2ccc(F)cc2)C(=O)N1 (stereo not drawn) [AEV40004] | 4430
55 | O=C1CCC(c2ccc3c(c2)NC(=O)C3)C(=O)N1 (stereo not drawn) [AEV40062] | 2390
56 | O=C1CCC(c2cccc(Nc3cccc(NC(=O)C4(C(=O)Nc5ccc(F)cc5)CC4)c3)c2)C(=O)N1 (stereo not drawn) [AEV40219] | 2210
57 | Cc1ccc(CNc2cccc(C3CCC(=O)NC3=O)c2)cc1F (stereo not drawn) [AEV40095] | 1580
58 | Nc1cccc(S(=O)(=O)Nc2cccc(C3CCC(=O)NC3=O)c2)c1 (stereo not drawn) [AEV40073] | 590
59 | O=C1CCC(c2cccc(NS(=O)(=O)c3cccc4ccccc34)c2)C(=O)N1 (stereo not drawn) [AEV40048] | 790
60 | CC(C)(C)OC(=O)NCc1cccc(C2CCC(=O)NC2=O)c1 (stereo not drawn) [AEV40130] | 4330
61 | COc1cc(C)ccc1CNc1cccc(C2CCC(=O)NC2=O)c1 (stereo not drawn) [AEV40108] | 840
62 | O=C1CCC(c2cc(NS(=O)(=O)c3ccc(Cl)cc3)ccc2F)C(=O)N1 (stereo not drawn) [AEV40038] | 690
63 | Cc1c(F)cccc1S(=O)(=O)Nc1cccc(C2CCC(=O)NC2=O)c1 (stereo not drawn) [AEV40052] | 950
64 | O=C1CCC(c2cccc(NC(=O)Nc3ccccc3)c2)C(=O)N1 (stereo not drawn) [AEV40129] | 370
65 | O=C1CCC(c2cccc(NS(=O)(=O)c3ccccc3F)c2)C(=O)N1 (stereo not drawn) [AEV40045] | 300

Row | Structure (SMILES) | IC50 [nM]
66 | O=C1CCC(c2cccc(NCc3ccccc3)c2)C(=O)N1 (stereo not drawn) [AEV40087] | 1150
67 | O=C1CCC(c2cccc(NS(=O)(=O)c3ccc([N+](=O)[O-])c(C(F)(F)F)c3)c2)C(=O)N1 (stereo not drawn) [AEV40053] | 750
68 | Cc1ccc([N+](=O)[O-])cc1S(=O)(=O)Nc1cccc(C2CCC(=O)NC2=O)c1 (stereo not drawn) [AEV40060] | 1520
69 | O=C1CCC(c2cccc(NCc3cc(F)c(F)c(F)c3)c2)C(=O)N1 (stereo not drawn) [AEV40110] | 1960
70 | O=C1CCC(c2cccc(NC(=O)c3ccccc3)c2)C(=O)N1 (stereo not drawn) [AEV40088] | 2190
71 | O=C1CCC(c2cccc(NS(=O)(=O)c3cccc(NCc4ccc5[nH]ccc5c4)c3)c2)C(=O)N1 (stereo not drawn) [AEV40171] | 1280
72 | O=C1CCC(c2cccc(NC(=O)c3cccc(-c4ccccc4)c3)c2)C(=O)N1 (stereo not drawn) [AEV40162] | 2150
73 | O=C1CCC(c2cccc(NS(=O)(=O)c3cccc(NC(=O)c4ccc(Cl)c(Cl)c4)c3)c2)C(=O)N1 (stereo not drawn) [AEV40142] | 980
74 | CS(=O)(=O)Nc1cccc(C2CCC(=O)NC2=O)c1 (stereo not drawn) [AEV40030] | 7060
75 | Cc1ccccc1C(=O)Nc1cccc(C2CCC(=O)NC2=O)c1 (stereo not drawn) [AEV40146] | 1100
76 | O=C1CCC(c2cccc(NS(=O)(=O)c3cccc(NC(=O)C4CCOCC4)c3)c2)C(=O)N1 (stereo not drawn) [AEV40225] | 12100
77 | O=C1CCC(c2ccc3ncoc3c2)C(=O)N1 (stereo not drawn) [AEV40203] | 1800
78 | CN1CCN(c2ccc(NC(=O)CCc3cccc(Nc4cccc(C5CCC(=O)NC5=O)c4)c3)cc2)CC1 (stereo not drawn) [AEV40196] | 1230
79 | O=C1CCC(c2cccc(NC(=O)c3ccc(F)cc3F)c2)C(=O)N1 (stereo not drawn) [AEV40164] | 1670
80 | O=C1CCC(c2cccc(NS(=O)(=O)c3cccs3)c2)C(=O)N1 (stereo not drawn) [AEV40072] | 310
81 | Cc1cc(Cl)ccc1C(=O)Nc1cccc(C2CCC(=O)NC2=O)c1 (stereo not drawn) [AEV40147] | 1370
82 | O=C1CCC(c2ccc(NS(=O)(=O)c3ccc(Cl)cc3)cc2)C(=O)N1 (stereo not drawn) [AEV40063] | 1430
83 | O=C1CCC(c2cccc(NC(=O)c3n[nH]cc3Cl)c2)C(=O)N1 (stereo not drawn) [AEV40183] | 1050
84 | O=C1CCC(c2cccc(NC(=O)c3ccc(Cl)cc3)c2)C(=O)N1 (stereo not drawn) [AEV40139] | 2120
85 | O=C1CCC(c2cccc(NS(=O)(=O)c3cccc(NC(=O)c4ccc(Cl)cc4Cl)c3)c2)C(=O)N1 (stereo not drawn) [AEV40150] | 1820
86 | CS(=O)(=O)N1Cc2cc(C3CCC(=O)NC3=O)ccc2C1=O (stereo not drawn) [AEV40059] | 102000

same assay, conditions: read-out: Alpha IC50; Table 1; AlphaScreen, PROTAC Optimization Kit for BET Bromodomain-Cereblon Binding

Row | Structure (SMILES) | IC50 [nM]
87 | Cc1cccc(S(=O)(=O)Nc2cccc(C3CCC(=O)NC3=O)c2)c1 (stereo not drawn) [AEV40069] | 710
